What was measured:
[1] = system: Different melanoma cell lines with various mutations; assay: Viability test with CRO15, melanoma cell lines with various mutations; assay type: cell-based, human; details: 5 μM, 48 hours; FIG. 1C
From the text: (§1) Different melanoma cell lines were purchased from the American Tissue Culture Collection: A375 and WM9 cells are mutated on B-Raf, CDKN2A and PTEN proteins; SKmel28 cells are mutated on B-Raf and P53 proteins; 1205Lu cells are mutated on B-Raf and PTEN proteins; G-361 cells are mutated on B-Raf and CDKN2A proteins; C8161 cells are mutated on B-Raf and K-Ras proteins; WM3912 cells are mutated on B-Raf and CDKN2A proteins; MeWo cells are mutated on P53 and CDKN2A proteins; WM3918 presents no mutations on characteristic proteins.
(§2) For trypan blue staining, […] of cells (melanoma and normal human cells) were aseptically transferred to a 1.5 mL clear Eppendorf tube and incubated for 3 min at room temperature with an equal volume of 0.4% trypan blue solution. Viable cells were counted and the results are expressed as the percentage of the value of control cells. All the experiments are performed 3 times in triplicate.
Different melanoma cell lines with various mutations, patient cells with various mutations and normal human cells, were treated with 5 μM of CRO15 for 48 hours or DMSO (Control). At the end of stimulation, viable cells were counted using the trypan blue dye exclusion method. The results are normalized as percentages compare to the control and data means±SEM of three independent experiments performed in triplicate *p<0.05; **p<0.01; ***p<0.001. […]

patient melanoma cells = assay: Viability test with CRO15, patient melanoma cells; assay type: cell-based, human; details: 5 μM, 48 hours; FIG. 1D
Experimental: (§3) Fresh sterile tissues were obtained from surgical waste from patients diagnosed with metastatic melanoma at the Nice CHU hospital. Epidermal cell suspensions were obtained from foreskins of Caucasian children by overnight digestion in phosphate-buffered saline containing 0.5% dispase grade II at 4° C., followed by a 20 min digestion with 0.05% trypsin-0.02% EDTA in phosphate-buffered saline (V/V) at 37° C. Human primary melanocytes were grown in MCDB153 medium supplemented with 2% FCS, 0.4 μg/ml hydrocortisone, 5 μg/ml insulin, 16 nM phorbol-12 myristate 13-acetate, 1 ng/ml basic fibroblast growth factor, 10 μg/ml bovine pituitary extract and penicillin/streptomycin (100 U/ml/50 μg/ml). […]
(§4) For trypan blue staining, […] of cells (melanoma and normal human cells) were aseptically transferred to a 1.5 mL clear Eppendorf tube and incubated for 3 min at room temperature with an equal volume of 0.4% trypan blue solution. Viable cells were counted and the results are expressed as the percentage of the value of control cells. […]
(§5) Different melanoma cell lines with various mutations, patient cells with various mutations and normal human cells, were treated with 5 μM of CRO15 for 48 hours or DMSO (Control). At the end of stimulation, viable cells were counted using the trypan blue dye exclusion method. […]

normal human cells = assay: Viability test with CRO15, normal human cells; assay type: cell-based; details: 5 μM, 48 hours; FIG. 1E
Experimental: as §3, §4, §5

Melanoma cell line DR6 = assay: Viability test on double resistant cells to BRAF and MEK inhibitors; assay type: cell-based; details: 5 μM or 10 μM, 24 hours; FIG. 5
Experimental: as §2
Melanoma cell line DR6 resistant cells to B-Raf inhibitor (Vemurafenib=PLX4032) and to MEK inhibitor (Cobimetinib) were treated with DMSO (control), with 5 μM or 10 μM of CRO15 or with a combination of 1 μM of vemurafenib and 0.5 μM of cobimetinib. After 24 hours of stimulation, viable cells were counted using the trypan blue dye exclusion method. The results are normalized as percentages compare to the control. Error bars represents ±SEM of triplicate.

AMPK = assay: Western blot assays, A375 Sensitive cells; assay type: cell-based, human; details: 5 μM, 6 hr, 12 hr or 24 hr; FIG. 2
Experimental: Western blot analyses were performed as described (Lehraiki et al., 2014). Proteins were extracted in buffer containing 50 mmol/l Tris-HCl (pH 7.5), 15 mmol/1, NaCl, 1% Triton X-100, and 1× protease and phosphatase inhibitors. Briefly, cell lysates […] were separated by SDS-PAGE, transferred onto a polyvinylidene fluoride membrane (Millipore), and then exposed to the appropriate antibodies. Proteins were visualized with the ECL System from Amersham. The western blot analyses shown are representative of at least three independent experiments.
Western Blot analysis: A375 Sensitive cells were treated with 5 μM of CRO15 for different time (6 hr, 12 hr or 24 hr) or with DMSO (Control) for 24 hr.

murine melanoma BP cells = assay: Murine melanoma BP cells allografted into C57BL6 mice; assay type: in vivo, C57BL6/J mice; details: BP cells allograft, immunocompetent C57BL/6, 0.7 mg/mouse/day intraperitoneal; FIG. 7A
Experimental: In Vivo Murine Cancer Model Animal experiments were carried out in accordance with the Declaration of Helsinki and were approved by a local ethical committee CIEPAL (Comite Institutionnel d'Ethique Pour l'Animal de Laboratoire-Azur). Female C57BL6/J mice were obtained at 5 weeks of age from Envigo Laboratory (Gannat, France). Mice were inoculated subcutaneously with BP melanoma cells (1×10^6 cells/mouse). After tumor apparition (+5 days), animals received intraperitoneal injection of Labrafil (vehicle) or CRO15 (0.7 mg/mouse/day). The growth tumor curves were determined by measuring the tumor volume using the equation V=(L*W2)/2, (V=tumor volume, W=tumor width, L=tumor length). At the end of the experiment, mice were euthanized by cervical dislocation.

WM9 cells = assay: Resistance development in WM9 cells after 8 weeks of drug exposure; assay type: cell-based, human; details: 8 weeks increasing concentrations, then 10 μM 48 hrs; FIG. 7B
From the text: as §1, §2
To study weither melanoma cells WM9 would develop resistance to CRO15, these cells were kept in culture during 8 weeks in presence of increasing concentrations of either, DMSO (control), PLX4032, CRO15 or MTF255. The starting concentration was 0.2 μM.
Along with non-treated WM9S (naive cells), drug-treated WM9S were then stimulated with 10 μM of each drug during 48 hrs. Viable cells were counted using the trypan blue dye exclusion method. […]

## Nc1nc(Nc2ccccc2SSc2ccccc2Nc2nc(N)nc(C(Cl)(Cl)Cl)n2)nc(C(Cl)(Cl)Cl)n1 [CRO15, N2,N2′-(disulfanediylbis(2,1-phenylene))bis(6-(trichloromethyl)-1,3,5-triazine-2,4-diamine)]
[1]
  viability of different melanoma cell lines with various mutations: induces a decrease of the viability
Patient melanoma cells
  viability of patient melanoma cells: induces a decrease of the viability
Normal human cells
  viability of normal cells (toxicity): not toxic for normal cells
Melanoma cell line DR6
  cell viability of DR6 cells: induces a decrease of the cell viability
AMPK
  activation of AMPK (western blot): induces an activation of AMPK
Murine melanoma BP cells
  tumor growth (tumor volume): no tumor growth
WM9 cells
  cell viability of WM9 after 8 weeks of treatment and stimulation with the drug: still able to induce cell death

From patent US11440906B2, “Biguanide derivatives and their rearrangement products for use in the treatment of cancer” (CENTRE NATIONAL DE LA RECHERCHE SCIENTIFIQUE, priority 2017, dated 2022)
